The test relates to L1210 leukemia ip in BDF1 mice, survival T/C. Briefly: NCI In Vivo Anticancer Drug Screen. Data for tumor model L1210 Leukemia (intraperitoneal) in B6D2F1 (BDF1) mice. Conditions: higher = longer survival. The gist of the method: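 Tumor cells were implanted, animals were treated, and survival was followed. The result divides the treated measurement by the vehicle-control measurement.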

The mark [1] stands for this setting: endpoint: mean survival time, dose: 100.0 mg/kg/injection, schedule: Q04DX003 (ip), vehicle: Klucel (hydroxypropylcellulose) (HPC).
Where [2] appears, read: endpoint: mean survival time, dose: 200.0 mg/kg/injection, schedule: Q04DX003 (ip), vehicle: Klucel (hydroxypropylcellulose) (HPC).
Where [3] appears, read: endpoint: mean survival time, dose: 400.0 mg/kg/injection, schedule: Q04DX003 (ip), vehicle: Klucel (hydroxypropylcellulose) (HPC).
[4] abbreviates: endpoint: mean survival time, dose: 25.0 mg/kg/injection, schedule: Q01DX009 (ip), vehicle: saline with Tween-80.
Where [5] appears, read: endpoint: mean survival time, dose: 100.0 mg/kg/injection, schedule: Q04DX003 (ip), vehicle: saline with Tween-80.
[6] abbreviates: endpoint: mean survival time, dose: 100.0 mg/kg/injection, schedule: Q01DX009 (ip), vehicle: Klucel (hydroxypropylcellulose) (HPC).
The mark [7] stands for this setting: endpoint: mean survival time, dose: 200.0 mg/kg/injection, schedule: Q01DX009 (ip), vehicle: Klucel (hydroxypropylcellulose) (HPC).
The mark [8] stands for this setting: endpoint: mean survival time, dose: 400.0 mg/kg/injection, schedule: Q01DX009 (ip), vehicle: Klucel (hydroxypropylcellulose) (HPC).

“And” between values parts separate entries of the source, which are not always exact repeats. Equal entries are not always repeated. Inconclusive results and toxic doses are left out.

Regarding `C[Si](C)(C#CC1(O)CCCCC1)C(Cl)Cl`, the T/C under setting [1] was 102 % of control, the T/C under setting [2] is 101 % of control and the T/C under setting [3] is 109 % of control.
As for `COC(=O)CC(=O)C=P(c1ccccc1)(c1ccccc1)c1ccccc1`, the T/C was 98 % of control (endpoint: mean survival time, dose: 12.5 mg/kg/injection, schedule: Q01DX009 (ip), vehicle: saline with Tween-80); 101 % of control under setting [4]; 95 % of control (endpoint: mean survival time, dose: 50.0 mg/kg/injection, schedule: Q01DX009 (ip), vehicle: saline with Tween-80); 96 % of control (endpoint: mean survival time, dose: 75.0 mg/kg/injection, schedule: Q01DX001 (ip), vehicle: saline); 89 % of control (endpoint: mean survival time, dose: 100.0 mg/kg/injection, schedule: Q01DX009 (ip), vehicle: saline with Tween-80); 100 % of control (endpoint: mean survival time, dose: 150.0 mg/kg/injection, schedule: Q01DX001 (ip), vehicle: saline). Moreover, the T/C (endpoint: mean survival time, dose: 300.0 mg/kg/injection, schedule: Q01DX001 (ip), vehicle: saline) is 93 % of control.
Turning to `N#Cc1c(/N=C/c2ccccc2Cl)sc2c1CCC2`, the T/C (endpoint: mean survival time, dose: 100.0 mg/kg/injection, schedule: Q04DX002 (ip), vehicle: saline with Tween-80) was 91 % of control; the T/C (endpoint: mean survival time, dose: 200.0 mg/kg/injection, schedule: Q04DX002 (ip), vehicle: saline with Tween-80) is 105 % of control; the T/C (endpoint: mean survival time, dose: 400.0 mg/kg/injection, schedule: Q04DX002 (ip), vehicle: saline with Tween-80) is 91 % of control.
As to `O=[N+]([O-])c1ccc(C=Nc2cc(Cl)ccc2Cl)s1`, the T/C was 98 % of control under setting [5] and 88 % of control (endpoint: mean survival time, dose: 200.0 mg/kg/injection, schedule: Q04DX003 (ip), vehicle: saline with Tween-80).
Regarding `Nc1nc(N)c(-c2ccc(Cl)c(Cl)c2)c(CCc2ccc(S(=O)(=O)F)cc2)n1`, the T/C was 112 % of control under setting [6] and 98 % of control under setting [7].
For `Nc1cncc2ccccc12`, the T/C runs as follows: (endpoint: mean survival time, dose: 25.0 mg/kg/injection, schedule: Q01DX009 (ip), vehicle: gum acacia) 96 % of control; (endpoint: mean survival time, dose: 25.0 mg/kg/injection, schedule: Q04DX003 (ip), vehicle: gum acacia) 100 % of control; (endpoint: mean survival time, dose: 50.0 mg/kg/injection, schedule: Q01DX009 (ip), vehicle: gum acacia) 111 % of control; (endpoint: mean survival time, dose: 50.0 mg/kg/injection, schedule: Q04DX003 (ip), vehicle: gum acacia) 98 % of control; (endpoint: mean survival time, dose: 100.0 mg/kg/injection, schedule: Q01DX009 (ip), vehicle: gum acacia) 103 % of control; (endpoint: mean survival time, dose: 100.0 mg/kg/injection, schedule: Q04DX003 (ip), vehicle: gum acacia) 102 % of control and 104 % of control.
As for `CCCCCCCCCCCC1=NCCN1`, the T/C by setting is: (endpoint: mean survival time, dose: 6.25 mg/kg/injection, schedule: Q01DX009 (ip), vehicle: saline) 91 % of control; (endpoint: mean survival time, dose: 12.5 mg/kg/injection, schedule: Q01DX009 (ip), vehicle: saline) 91 % of control; (endpoint: mean survival time, dose: 12.5 mg/kg/injection, schedule: Q04DX003 (ip), vehicle: saline) 89 % of control; under setting [4], 93 % of control; (endpoint: mean survival time, dose: 25.0 mg/kg/injection, schedule: Q01DX009 (ip), vehicle: saline) 93 % of control; (endpoint: mean survival time, dose: 25.0 mg/kg/injection, schedule: Q04DX003 (ip), vehicle: saline with Tween-80) 97 % of control. Moreover, the T/C (endpoint: mean survival time, dose: 25.0 mg/kg/injection, schedule: Q04DX003 (ip), vehicle: saline) is 94 % of control; the T/C (endpoint: mean survival time, dose: 50.0 mg/kg/injection, schedule: Q01DX009 (ip), vehicle: saline) was 91 % of control; the T/C (endpoint: mean survival time, dose: 50.0 mg/kg/injection, schedule: Q04DX003 (ip), vehicle: saline with Tween-80) is 97 % of control; the T/C (endpoint: mean survival time, dose: 50.0 mg/kg/injection, schedule: Q04DX003 (ip), vehicle: saline) is 94 % of control; the T/C under setting [6] was 100 % of control; the T/C under setting [5] is 100 % of control. The T/C under setting [7] was 96 % of control and the T/C under setting [8] is 88 % of control.
For `CC(=O)N1Cc2nc(N)nc(N)c2C1`, the T/C (endpoint: mean survival time, dose: 100.0 mg/kg/injection, schedule: Q01DX001 (ip), vehicle: carboxymethylcellulose (CMC)) was 95 % of control; the T/C (endpoint: mean survival time, dose: 200.0 mg/kg/injection, schedule: Q01DX001 (ip), vehicle: carboxymethylcellulose (CMC)) is 104 % of control; the T/C (endpoint: mean survival time, dose: 400.0 mg/kg/injection, schedule: Q01DX001 (ip), vehicle: carboxymethylcellulose (CMC)) is 104 % of control.
For `CC(=O)OC(C(=O)c1ccccc1)c1ccccc1` (stereo not drawn), the T/C was 94 % of control under setting [6]; 104 % of control under setting [1]; 94 % of control under setting [7]; 104 % of control under setting [2]; 104 % of control under setting [8]; 91 % of control under setting [3].
In the case of `CC(C)(C)C(C(=O)O)C(=O)O`, the T/C was 98 % of control (endpoint: mean survival time, dose: 50.0 mg/kg/injection, schedule: Q04DX002 (ip), vehicle: saline); 98 % of control (endpoint: mean survival time, dose: 100.0 mg/kg/injection, schedule: Q04DX002 (ip), vehicle: saline); 92 % of control (endpoint: mean survival time, dose: 200.0 mg/kg/injection, schedule: Q04DX002 (ip), vehicle: saline).
Consider `CC1=COC(C)(C2NC(C)CC(C)(C)N2)CC1` (stereo not drawn), for which the T/C is, setting by setting: (endpoint: mean survival time, dose: 44.0 mg/kg/injection, schedule: Q01DX Z (ip), vehicle: methylcellulose (MC)) 100 % of control; (endpoint: mean survival time, dose: 100.0 mg/kg/injection, schedule: Q01DX Z (ip), vehicle: methylcellulose (MC)) 95 % of control.
Turning to `COC(COC(N)=O)C1=C(N2CC2)C(=O)C(C)=C(N2CC2)C1=O` (stereo not drawn), the T/C (endpoint: mean survival time, dose: 0.03 mg/kg/injection, schedule: Q01DX Z (ip), vehicle: saline) is 107 % of control; the T/C (endpoint: mean survival time, dose: 0.06 mg/kg/injection, schedule: Q01DX Z (ip), vehicle: saline) was 115 % of control; the T/C (endpoint: mean survival time, dose: 0.12 mg/kg/injection, schedule: Q01DX009 (ip), vehicle: Klucel (hydroxypropylcellulose) (HPC)) was 158 % of control; the T/C (endpoint: mean survival time, dose: 0.12 mg/kg/injection, schedule: Q01DX Z (ip), vehicle: saline) is 115 % of control; the T/C (endpoint: mean survival time, dose: 0.25 mg/kg/injection, schedule: Q01DX009 (ip), vehicle: Klucel (hydroxypropylcellulose) (HPC)) is 113 % of control; the T/C (endpoint: mean survival time, dose: 0.25 mg/kg/injection, schedule: Q01DX Z (ip), vehicle: saline) was 159 % of control. Moreover, the T/C runs as follows: (endpoint: mean survival time, dose: 0.5 mg/kg/injection, schedule: Q01DX009 (ip), vehicle: saline) 207 % of control; (endpoint: mean survival time, dose: 0.5 mg/kg/injection, schedule: Q01DX Z (ip), vehicle: saline) 157 % of control; (endpoint: mean survival time, dose: 0.5 mg/kg/injection, schedule: Q04DX003 (ip), vehicle: Klucel (hydroxypropylcellulose) (HPC)) 194 % of control; (endpoint: mean survival time, dose: 0.5 mg/kg/injection, schedule: Q04DX003 (ip), vehicle: saline) 172 % of control; (endpoint: mean survival time, dose: 0.5 mg/kg/injection, schedule: Q08DX002 (ip), vehicle: saline) 160 % of control; (endpoint: mean survival time, dose: 1.0 mg/kg/injection, schedule: Q01DX001 (ip), vehicle: saline with Tween-80) 166 % of control. The T/C is 171 % of control (endpoint: mean survival time, dose: 1.0 mg/kg/injection, schedule: Q01DX001 (ip), vehicle: saline); 201 % of control (endpoint: mean survival time, dose: 1.0 mg/kg/injection, schedule: Q01DX009 (ip), vehicle: saline); 90 % of control (endpoint: mean survival time, dose: 1.0 mg/kg/injection, schedule: Q01DX Z (ip), vehicle: saline); 188 % of control (endpoint: mean survival time, dose: 1.0 mg/kg/injection, schedule: Q04DX003 (ip), vehicle: saline); 233 % of control (endpoint: mean survival time, dose: 1.0 mg/kg/injection, schedule: Q08DX002 (ip), vehicle: saline); 288 % of control (endpoint: mean survival time, dose: 2.0 mg/kg/injection, schedule: Q01DX001 (ip), vehicle: saline with Tween-80). The T/C is 360 % of control (endpoint: mean survival time, dose: 2.0 mg/kg/injection, schedule: Q01DX001 (ip), vehicle: saline); 92 % of control (endpoint: mean survival time, dose: 2.0 mg/kg/injection, schedule: Q01DX009 (ip), vehicle: Klucel (hydroxypropylcellulose) (HPC)); 98 % of control (endpoint: mean survival time, dose: 2.0 mg/kg/injection, schedule: Q04DX003 (ip), vehicle: Klucel (hydroxypropylcellulose) (HPC)); 105 % of control (endpoint: mean survival time, dose: 2.0 mg/kg/injection, schedule: Q04DX003 (ip), vehicle: saline); 159 % of control (endpoint: mean survival time, dose: 2.0 mg/kg/injection, schedule: Q08DX002 (ip), vehicle: saline); 90 % of control (endpoint: mean survival time, dose: 4.0 mg/kg/injection, schedule: Q01DX001 (ip), vehicle: saline with Tween-80). Further, the T/C by setting is: (endpoint: median survival time, dose: 0.5 mg/kg/injection, schedule: Q01DX001 (ip), vehicle: saline) 100 % of control; (endpoint: median survival time, dose: 1.0 mg/kg/injection, schedule: Q01DX001 (ip), vehicle: saline) 109 % of control; (endpoint: median survival time, dose: 2.0 mg/kg/injection, schedule: Q01DX001 (ip), vehicle: saline) 114 % of control.

The record behind these values is PubChem BioAssay AID248 (DTP/NCI, 2004).
